{
  "source": "patent US20220356170A1",
  "about": "“SREBP INHIBITOR COMPRISING A THIOPHENE CENTRAL RING” (Capulus Therapeutics, LLC, priority 2019, published 2022)",
  "assay_in_all_cases": "Cancer cell growth inhibition, Sulforhodamine B",
  "assay_type_in_all_cases": "cell-based",
  "key": {"PLCPRF5": {"test_system": "PLCPRF5", "details": "Homo sapiens, PLC-PRF-5, 72 h, PLCPRF5 (liver)", "procedure": "(§1) The ability of select compounds to inhibit cell growth in various cancer cell lines are evaluated. […] The cell lines shown in Table 5 have reduced growth by at least 50% at 10 uM or lower over 72 hr treatment in growth media. The cell lines shown in Table 6 have reduced growth by at least 50% with an IC50 greater than 10 uM.\n(§2) Six 10-fold compound dilutions are prepared in DMSO (e.g. 10 mM, 1 mM, 100 uM, 10 uM, 1 uM, and 0.1 uM). Single data points are acquired for each concentration. The final concentration of DMSO is 0.1%. The duration of the treatment is 72 hr. Growth inhibition is measured using Sulforhodamine B in a protein staining assay. Activity of the agents is determined by evaluation the following parameters: IC50, GI50, IC10, TGI, LC50, IC90, and GI90 (where these values can be calculated)."}, "MT3": {"test_system": "MT3", "details": "MT-3, 72 h, MT3 (breast)", "procedure": "as §1, §2"}, "NCIH460": {"test_system": "NCIH460", "details": "Homo sapiens, NCI-H460; NCIH460 (lung), 72 hr; Non-Responder Cell Lines with IC50 >10 uM or Not Determined", "procedure": "as §1, §2"}, "TE671": {"test_system": "TE671", "details": "Homo sapiens, TE-671, 72 h, TE671 (muscle)", "procedure": "as §1, §2"}, "SKLMS1": {"test_system": "SKLMS1", "details": "Homo sapiens, SK-LMS-1; SKLMS1 (uterus), 72 hr; Non-Responder Cell Lines with IC50 >10 uM or Not Determined", "procedure": "as §1, §2"}, "NCIH292": {"test_system": "NCIH292", "details": "Homo sapiens, NCI-H292; NCIH292 (lung), 72 hr; Non-Responder Cell Lines with IC50 >10 uM or Not Determined", "procedure": "as §1, §2"}, "C33A": {"test_system": "C33A", "details": "Homo sapiens, C-33-A; 72 hr; Responder Cell Lines", "procedure": "as §1, §2"}, "SNB75": {"test_system": "SNB75", "details": "Homo sapiens, SNB-75; SNB75 (brain), 72 hr; Non-Responder Cell Lines with IC50 >10 uM or Not Determined", "procedure": "as §1, §2"}, "L-363": {"test_system": "L-363", "details": "Homo sapiens; L-363 (hematological), 72 hr; Responder Cell Lines", "procedure": "as §1, §2"}, "MCF7": {"test_system": "MCF7", "details": "Homo sapiens; MCF7 (breast), 72 hr; Responder Cell Lines", "procedure": "as §1, §2"}, "HCT116": {"test_system": "HCT116", "details": "Homo sapiens, HCT-116; HCT116 (colon), 72 hr; Responder Cell Lines", "procedure": "as §1, §2"}, "RAMOS": {"test_system": "RAMOS", "details": "Homo sapiens, 72 h, RAMOS (hematological)", "procedure": "as §1, §2"}, "PANC1": {"test_system": "PANC1", "details": "Homo sapiens, PANC-1; PANC1 (pancreas), 72 hr; Non-Responder Cell Lines with IC50 >10 uM or Not Determined", "procedure": "as §1, §2"}, "MDAMB435": {"test_system": "MDAMB435", "details": "Homo sapiens, MDA-MB-435; MDAMB435 (skin), 72 hr; Responder Cell Lines", "procedure": "as §1, §2"}, "PANC1005": {"test_system": "PANC1005", "details": "Homo sapiens, Panc1005, 72 h, PANC1005 (pancreas)", "procedure": "as §1, §2"}, "JAR": {"test_system": "JAR", "details": "JAR (placenta), 72 hr; Responder Cell Lines", "procedure": "as §1, §2"}, "UMUC3": {"test_system": "UMUC3", "details": "Homo sapiens; UMUC3 (bladder), 72 hr; Non-Responder Cell Lines with IC50 >10 uM or Not Determined", "procedure": "as §1, §2"}, "HL-60": {"test_system": "HL-60", "details": "Homo sapiens; HL-60 (hematological), 72 hr; Responder Cell Lines", "procedure": "as §1, §2"}, "U87MG": {"test_system": "U87MG", "details": "Homo sapiens, U-87 MG; U87MG (brain), 72 hr; Non-Responder Cell Lines with IC50 >10 uM or Not Determined", "procedure": "as §1, §2"}, "EFO21": {"test_system": "EFO21", "details": "Homo sapiens, EFO-21; EFO21 (ovary), 72 hr; Responder Cell Lines", "procedure": "as §1, §2"}, "SF295": {"test_system": "SF295", "details": "Homo sapiens, SF-295, 72 h, SF295 (brain)", "procedure": "as §1, §2"}, "SKOV3": {"test_system": "SKOV3", "details": "Homo sapiens, SK-OV-3; SKOV3 (ovary), 72 hr; Non-Responder Cell Lines with IC50 >10 uM or Not Determined", "procedure": "as §1, §2"}, "CACO2": {"test_system": "CACO2", "details": "Homo sapiens, Caco-2; CACO2 (colon), 72 hr; Responder Cell Lines", "procedure": "as §1, §2"}, "HEK293": {"test_system": "HEK293", "details": "Homo sapiens; HEK293 (kidney), 72 hr; Responder Cell Lines", "procedure": "as §1, §2"}, "RD": {"test_system": "RD", "details": "Homo sapiens; RD (muscle), 72 hr; Non-Responder Cell Lines with IC50 >10 uM or Not Determined", "procedure": "as §1, §2"}, "[1]": {"details": "Non-Responder Cell Lines with IC50 >10 uM or Not Determined"}},
  "note": "pIC50: −log10 of the molar value.",
  "data": [
    {"compound": "CC(C)(O)c1cc(-c2csc(-c3ccc(C(=O)N4CCC(O)CC4)cc3Cl)c2)ccn1", "note": "[Compound 1, (3-chloro-4-(4-(2-(2-hydroxypropan-2-yl)pyridin-4-yl)thiophen-2-yl)phenyl)(4-hydroxypiperidin-1-yl)methanone]", "values": [
      {"measurement": "pIC50", "setting": "PLCPRF5; [1]", "result": "< 5.00"},
      {"measurement": "pIC50", "setting": "PLCPRF5; Responder Cell Lines", "result": "> 5.00"},
      {"measurement": "pIC50", "setting": "MT3; [1]", "result": "< 5.00"},
      {"measurement": "pIC50", "setting": "MT3; Responder Cell Lines", "result": "> 5.00"},
      {"measurement": "pIC50", "setting": "NCIH460", "result": "< 5.00"},
      {"measurement": "pIC50", "setting": "TE671; [1]", "result": "< 5.00"},
      {"measurement": "pIC50", "setting": "TE671; Responder Cell Lines", "result": "> 5.00"},
      {"measurement": "pIC50", "setting": "SKLMS1", "result": "< 5.00"},
      {"measurement": "pIC50", "setting": "NCIH292", "result": "< 5.00"},
      {"measurement": "pIC50", "setting": "C33A", "result": "> 5.00"},
      {"measurement": "pIC50", "setting": "SNB75", "result": "< 5.00"},
      {"measurement": "pIC50", "setting": "L-363", "result": "> 5.00"},
      {"measurement": "pIC50", "setting": "MCF7", "result": "> 5.00"},
      {"measurement": "pIC50", "setting": "HCT116", "result": "> 5.00"},
      {"measurement": "pIC50", "setting": "RAMOS; [1]", "result": "< 5.00"},
      {"measurement": "pIC50", "setting": "RAMOS; Responder Cell Lines", "result": "> 5.00"},
      {"measurement": "pIC50", "setting": "PANC1", "result": "< 5.00"},
      {"measurement": "pIC50", "setting": "MDAMB435", "result": "> 5.00"},
      {"measurement": "pIC50", "setting": "PANC1005; [1]", "result": "< 5.00"},
      {"measurement": "pIC50", "setting": "PANC1005; Responder Cell Lines", "result": "> 5.00"},
      {"measurement": "pIC50", "setting": "JAR", "result": "> 5.00"},
      {"measurement": "pIC50", "setting": "UMUC3", "result": "< 5.00"},
      {"measurement": "pIC50", "setting": "HL-60", "result": "> 5.00"},
      {"measurement": "pIC50", "setting": "U87MG", "result": "< 5.00"},
      {"measurement": "pIC50", "setting": "EFO21", "result": "> 5.00"},
      {"measurement": "pIC50", "setting": "SF295; [1]", "result": "< 5.00"},
      {"measurement": "pIC50", "setting": "SF295; Responder Cell Lines", "result": "> 5.00"},
      {"measurement": "pIC50", "setting": "SKOV3", "result": "< 5.00"},
      {"measurement": "pIC50", "setting": "CACO2", "result": "> 5.00"},
      {"measurement": "pIC50", "setting": "HEK293", "result": "> 5.00"},
      {"measurement": "pIC50", "setting": "RD", "result": "< 5.00"}
    ]}
  ]
}
